Patent US20230301981A1, “TLR7/8 ANTAGONISTS AND USES THEREOF” (Merck Patent GmbH, priority 2020, published 2023)
Values joined by “and” are separate entries in the source; they are usually repeats but may differ in a detail not shown here. Equal values may be shown once. Read-outs that look alike come from different tables or passages of the source.

Legend:
TLR9 = target: T1, TLR9 (Mus musculus, UniProt Q9EQU3); assay: Mouse spleenocytes cell assay with CpG stimulation (IL6/TNFa ELISA); format: cell-based; conditions: CpG 5 µM
T1 construct: from tissue; host or cells: primary splenocytes from C57BL-6/N mouse spleen
T1 sequence (Q9EQU3 26-1032): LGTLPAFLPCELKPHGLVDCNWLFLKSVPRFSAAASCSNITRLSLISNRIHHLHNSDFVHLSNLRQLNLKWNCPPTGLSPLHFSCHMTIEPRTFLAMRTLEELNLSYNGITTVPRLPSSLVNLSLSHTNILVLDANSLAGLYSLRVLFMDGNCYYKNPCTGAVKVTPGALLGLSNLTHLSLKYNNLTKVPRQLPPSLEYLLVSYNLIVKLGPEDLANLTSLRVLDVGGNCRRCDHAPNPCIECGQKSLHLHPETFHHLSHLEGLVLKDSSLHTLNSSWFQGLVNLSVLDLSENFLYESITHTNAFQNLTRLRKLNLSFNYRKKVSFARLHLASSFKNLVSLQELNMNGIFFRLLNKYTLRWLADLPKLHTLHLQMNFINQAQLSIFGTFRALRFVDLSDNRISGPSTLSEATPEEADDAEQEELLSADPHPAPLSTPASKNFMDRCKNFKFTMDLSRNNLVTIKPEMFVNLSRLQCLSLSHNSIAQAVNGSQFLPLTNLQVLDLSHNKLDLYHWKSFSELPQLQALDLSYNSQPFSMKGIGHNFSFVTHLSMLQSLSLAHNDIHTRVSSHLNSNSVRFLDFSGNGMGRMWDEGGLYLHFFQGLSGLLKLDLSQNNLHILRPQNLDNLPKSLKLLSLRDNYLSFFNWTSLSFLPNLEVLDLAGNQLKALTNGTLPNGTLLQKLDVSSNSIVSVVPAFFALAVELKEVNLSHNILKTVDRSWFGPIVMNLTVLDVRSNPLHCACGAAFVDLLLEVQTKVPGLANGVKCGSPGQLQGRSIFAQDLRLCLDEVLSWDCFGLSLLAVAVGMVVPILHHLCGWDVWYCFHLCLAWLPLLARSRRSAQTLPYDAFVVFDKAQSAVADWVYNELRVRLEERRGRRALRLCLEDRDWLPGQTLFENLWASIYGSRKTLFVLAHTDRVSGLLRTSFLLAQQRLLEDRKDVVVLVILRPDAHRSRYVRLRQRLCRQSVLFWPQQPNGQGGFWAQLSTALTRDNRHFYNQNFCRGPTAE
Procedure: (§1) Mouse spleen from healthy, female C57BL-6/N mice (n=2) were taken out in 50 mL tubes with B-Cell medium and the experiment started directly. The spleen was grinded through a cell strainer by using the punch of a syringe into a 50 mL Falcon tube. Cell strainer and punch were flushed with appropriate amount of washing buffer to avoid cellloss. Then the spleenocytes were centrifuged for 10 min at 552 xg (1600 rpm), 4° C. The erythrocytes within the cell pellet were lysed by resuspending pellet in 1 ml ACK-lysing buffer (4° C.) and incubate for 1 minute at RT. Lysis was stopped by filling up to 50 ml with washing buffer and centrifuged for 10 min at 552 xg (1600 rpm), 4° C. Cells were washed in B-cell Media (IMDM + 25 mM HEPES + 10%FCS + pen/strep + NEAA 10 nM + Sodium Pyrovat 100 nM, β-Mercaptoethanol 50 nM), counted and seeded in a density of 148500 cells per well in a 96 well MTP (135µl of 1,1×106c/ml). The cells were pre-treated with antimalarials (15 µL, in different concentrations according to dose-response curve ranging from 100 pM-50 µM)) for 30 min, at 37° C., 5% CO2, followed by TLR⅞ stimulation with R848 (15 µl, final concentration of 1 µM) or a TLR9 stimulation with CpG (15 µl, final concentration of 5 µM) and incubated at 37° C., 5% CO2 for 18 - 24 hours.
(§2) Supernatants were collected and transferred into a 96 well round bottom MTP and stored at -20° C. until ELISA formouse IL6 and mouse TNFa were performed. Plates were read directly after assay on an Envision Multiplate reader. Results were analyzed with GraphPadPrism V8.0. Plot the calculated amount of produced IL6 or TNFa in pg/ml on y-axis and the concentration of each MSC concentration at half logarhythmic scaling on the x-axis to achieve a dose-response curve. Determine IC50 values using Graph Pad Prism analysis software (Transform Y values using “X=Log(X) and log inhibitor vs. response; Variable slope (four parameters).

TLR⅞ = target: T2, TLR⅞ (Mus musculus, UniProt P58681); assay: Mouse spleenocytes cell assay with R848 stimulation (IL6/TNFa ELISA); format: cell-based; conditions: R848 1 µM
T2 sequence (P58681 27-1050): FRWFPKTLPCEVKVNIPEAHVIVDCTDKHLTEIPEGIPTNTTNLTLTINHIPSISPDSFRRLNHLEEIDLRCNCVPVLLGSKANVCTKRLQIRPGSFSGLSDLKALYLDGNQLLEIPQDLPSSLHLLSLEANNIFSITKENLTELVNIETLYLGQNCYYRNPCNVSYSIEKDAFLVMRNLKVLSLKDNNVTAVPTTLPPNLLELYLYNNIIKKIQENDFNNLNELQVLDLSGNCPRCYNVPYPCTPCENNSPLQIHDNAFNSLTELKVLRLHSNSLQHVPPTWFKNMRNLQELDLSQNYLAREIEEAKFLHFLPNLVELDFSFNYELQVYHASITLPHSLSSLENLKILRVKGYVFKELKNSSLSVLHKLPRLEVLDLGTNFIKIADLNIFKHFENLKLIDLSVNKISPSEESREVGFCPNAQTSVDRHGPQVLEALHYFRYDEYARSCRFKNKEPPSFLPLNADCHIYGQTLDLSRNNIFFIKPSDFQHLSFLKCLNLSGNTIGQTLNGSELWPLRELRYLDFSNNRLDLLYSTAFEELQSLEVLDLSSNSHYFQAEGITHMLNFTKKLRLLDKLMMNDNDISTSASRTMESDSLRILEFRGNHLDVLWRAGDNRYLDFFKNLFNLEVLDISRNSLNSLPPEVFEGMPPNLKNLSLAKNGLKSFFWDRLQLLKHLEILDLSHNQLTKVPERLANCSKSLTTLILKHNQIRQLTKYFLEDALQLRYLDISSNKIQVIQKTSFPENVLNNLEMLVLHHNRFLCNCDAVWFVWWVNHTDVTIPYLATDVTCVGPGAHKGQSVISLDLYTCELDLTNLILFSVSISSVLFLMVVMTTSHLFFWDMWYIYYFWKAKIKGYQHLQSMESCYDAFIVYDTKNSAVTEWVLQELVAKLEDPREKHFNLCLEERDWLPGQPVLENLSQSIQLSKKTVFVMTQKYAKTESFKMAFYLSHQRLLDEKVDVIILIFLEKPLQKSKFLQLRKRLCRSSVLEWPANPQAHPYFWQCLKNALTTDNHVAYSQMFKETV
Procedure: as §1, §2

[1] = IL6 readout, read-out: IC50 TLR9 (IL6 readout) mouse spleenocytes (n=2)
[2] = TNF readout, read-out: IC50 TLR9 (TNF readout) mouse spleenocytes (n=2)

SMILES | IC50 (TLR9; [1]) | IC50 TLR9 (TNF readout) mouse spleenocytes (n=2) (TLR9; TNF readout) | IC50 (TLR9; [2]) | IC50 TLR⅞ (IL6 readout) mouse spleenocytes (n=2) (TLR⅞; IL6 readout) | IC50 (TLR⅞; IL6 readout, read-out: IC50 TLR⅞ (IL6 readout) mouse spleenocytes (n=2)) | IC50 TLR⅞ (TNF readout) mouse spleenocytes (n=2) (TLR⅞; TNF readout)
CCN(CCO)CCCC(C)Nc1ccnc2cc(Cl)ccc12 (centres unmarked) [HYDROXY-CHLOROQUINE HCQ, hydroxychloroquine] | 15400 nM and 1700 nM | no suppr | 11500 nM | no suppr | 27100 nM | no suppr
COc1ccc2nc3cc(Cl)ccc3c(Nc3cc(CN4CCCC4)c(O)c(CN4CCCC4)c3)c2n1 [Compound 1, Pyronaridine] | 14 nM and 35 nM |  | 21 nM and 140 nM |  |  | 
